# Values of other authors as cited in patent publication EP0712633A1, “Pharmaceutical compositions for topical application” (Blank, Izhak, priority 1994, dated 1996).
# Settings: 6-carboxylfluorescein
increase of penetration compared to the control (pretreatment of the skin with 4%) [times],SMILES,increase of plasma levels of the dye compared with a control (0.1% w/v in conjunction with sodium dodecyl sulfate 0.05% w/v) [times]
9,O=C(O)CS [calcium thioglycolate],
,OCCS [2-mercaptoethanol],40
